Data reported in patent publication US6030997A, “Acid labile prodrugs” (priority 1998, dated 2000).

Tests used:
Fisher 344 rats = test: 7-day once daily repeated intravenous toxicity in Fisher 344 rats: clinical signs, mortality, body weight, necropsy; type: in vivo, rat (Fisher 344); conditions: i.v. once daily 7 days, ProGenta equimolar to 60 mg/kg Gentamicin or Gentamicin 60 mg/kg; particularly females; especially striking Day 10
Experimental: All animals received 10 mg/liter of sodium bicarbonate in drinking water. All animals were allowed an additional 3-day recovery period. Final assessment of treatment effects was based on monitoring clinical signs, determinations of body weight, serum creatinine levels and urinary protein content. In addition, all animals were subjected to necropsy at termination of the study.

BALB/c mice = test: Toxicity of daily intravenous injections in BALB/c mice (proteinuria by Dipstick, mortality, gross pathology); type: in vivo, mouse (BALB/c); conditions: day 3, Gentamicin 75 mg/kg i.v. daily
kidney = conditions: rat, in vivo
Experimental: 3.1 The potential intravenous toxicity of the test article ProGenta (in a dose equimolar to 60 mg/kg of Gentamicin, Example 1) following once daily repeated intravenous administrations during 7 days, was studied in a group of seven male and seven female Fisher 344 rats, in comparison to an identically treated and equally sized group treated with the control article Gentamicin (60 mg/kg), and an untreated control group comprising six male and six female rats. All animals received 10 mg/liter of sodium bicarbonate in drinking water. All animals were allowed an additional 3-day recovery period. Final assessment of treatment effects was based on monitoring clinical signs, determinations of body weight, serum creatinine levels and urinary protein content. In addition, all animals were subjected to necropsy at termination of the study.

mice = conditions: i.v.; cited from earlier work

Gentamicin
weight gain (Fisher 344 rats): a relative reduction in normally expected weight gain
mortality (BALB/c mice): the two mice in the Gentamicin group died several hours after the injection
proteinuria (kidney): reached a peak value
urinary protein content (kidney): markedly increased
LD50 (mice): 75 mg/kg
